Measured values from US9724351B2, “Compounds for the treatment of paramoxyvirus viral infections” (priority 2012, dated 2017).
pEC50: −log10 of the molar value.

Columns and labels:
[1] = test system: Respiratory Syncytial Virus (RSV) long strain (ATCC#VR-26); experiment: RSV Antiviral Assay (CPE reduction assay); assay type: cell-based; settings: human respiratory syncytial virus, 120 h; HEp-2 cells infected with RSV long strain, 5 days, CCK-8 readout; bins (Table 2: less than 1 μM; Table 3: equal to or higher than 1 μM and less than 50 μM); read-out: 50% effective concentration (EC50)
Experimental: CPE reduction assays are performed as described by Sidwell and Huffman et al., Appl. Microbiol. (1971) 22(5):797-801 with slight modifications. HEp-2 cells (ATCC#, CCL-23) are seeded at a density of 1,500 cells/30 μl/well into the 384-well cell plate(s) (Corning#3701) one day prior to the assay. Compounds are added into 384-well cell plates by Labcyte POD 810 Plate Assembler system. Each of the test compounds is provided to duplicate wells of a 384-well cell plate at final concentrations starting from 100 μM or 1 μM using ⅓ stepwise dilutions for 9 points. Quick-thaw Respiratory Syncytial Virus (RSV) long strain (ATCC#VR-26) stock in a 37° C. water bath. Place on ice until ready to use. Viruses are diluted to the concentration of 100 TCID50/30 μl with medium and 30 μl diluted RSV are added into related wells of 384-well cell plates. For each plate, sixteen wells are set aside as uninfected, untreated cell controls (CC), and nine wells per test plate receive virus only as a control for virus replication (VC). The final DMSO concentration of all wells is 1%. Place the plates at 37° C., 5% CO2 for 5 days.
After 5 days incubation, observe the CPE of cells in all wells. […] Six μl of cell counting kit-8 reagent (CCK-8, Dojindo Molecular Technologies Inc., CK04-20) are added to each well, which allows colorimetric assays to determine the number of viable cells through the dehydrogenase activity detection. After 3-4 hour incubation, the absorbance of each well is measured with a spectrophotometric plate reader at 450 nm wavelength, using a 630 nm filter as background according to manufacturer's instruction. The 50% effective concentration (EC50) is calculated by using regression analysis, based on the mean O.D. at each concentration of compound.

[2] = Cytotoxicity Determination; assay type: cell-based; settings: human, HEp-2 cells, without addition of virus, CCK-8 readout, bins (Table 4: greater than 100 μM; Table 5: equal to or less than 100 μM and greater than 10 μM), read-out: 50% cytotoxicity concentration (CC50)
In short: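 Uninfected cells were exposed to compounds in duplicate over a 7-point ½ dilution series starting at 100 μM final, for 5 days at 37 °C, 5% CO2. CCK-8 was then added for 3-4 h, and CC50 was calculated from optical density.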

| Structure (SMILES) | pEC50 [1] | CC50 at 5 days [2] [µM] |
| --- | --- | --- |
| COc1cc(C(=O)CNC(=O)c2ccc(OC)c(OC)c2)nc(-c2ccc3[nH]nnc3c2)c1 [Compound 1403] | 4.30 to 6.00 | > 100 |
| COc1ccc(C(=O)NCC(=O)c2csc(-c3csc4c(F)cccc34)n2)cc1OC [Compound 1210] | 4.30 to 6.00 | > 100 |
| COc1cc(C(=O)NCC(=O)N(C)/N=C/c2c(C)sc3c(F)cccc23)ccc1OCCO [Compound 2300] | > 6.00 | 10 to 100 |
| COc1cc(C(=O)NCC(=O)c2ccc(OC)c(-c3ccc(F)c(Cl)c3)n2)ccc1OCC(N)=O [Compound 1316] | > 6.00 | > 100 |
| CCCC/C(=N\NC(=O)CNC(=O)c1ccc(OC)c(OC)c1)c1csc2ccccc12 [Compound 423] | > 6.00 | > 100 |
| COc1ccc(C(=O)NCC(=O)c2ccc(OC)c(-c3ccc(F)cc3)n2)cc1OC [Compound 1515] | > 6.00 | > 100 |
| COc1ccc(C(=O)NCC(=O)c2ccc(-c3csc4c(F)cccc34)o2)cc1OC [Compound 1351] | 4.30 to 6.00 | > 100 |
| COCCc1ccc(C(=O)NCC(=O)c2ccc(OC)c(-c3ccc(F)c(Cl)c3)n2)cc1OC [Compound 1331] | 4.30 to 6.00 | 10 to 100 |
| CNC(=O)COc1ccc(C(=O)NCC(=O)c2ccc(OC)c(-c3ccc(F)c(Cl)c3)n2)cc1OC [Compound 1321] | 4.30 to 6.00 | 10 to 100 |
| COc1cc(C(=O)NCC(=O)c2ccc(OC)c(-c3c[s+]([O-])c4c(F)cccc34)n2)ccc1OCCO (stereo not drawn) [Compound 3302] | > 6.00 | 10 to 100 |
| COc1ccc(C(=O)NCC(=O)c2ccc(OC)c(-c3cn[nH]c3)n2)cc1OC [Compound 1533] | 4.30 to 6.00 | > 100 |
| COc1cc(C(=O)NCC(=O)c2ccc(OC)c(-c3cnn4ccccc34)n2)ccc1OCCO [Compound 1345] | 4.30 to 6.00 | > 100 |
| COCC/C(=N\NC(=O)CNC(=O)c1ccc(OCCO)c(OC)c1)c1csc2c(F)cccc12 [Compound 603A] | > 6.00 | > 100 |
| CCCC/C(=N\NC(=O)CNC(=O)c1ccc(OCC)c(OC)c1)c1csc2ccccc12 [Compound 488] | > 6.00 | > 100 |
| CCOc1ccc(C(=O)NCC(=O)N/N=C(\C)c2csc3ccccc23)cc1OCC [Compound 457] | > 6.00 | 10 to 100 |
| COc1cc(C(=O)NCC(=O)c2ccc(OC)c(C3=CS(=O)(=O)c4c(F)cccc43)n2)ccc1OCCO [Compound 1344] | 4.30 to 6.00 | 10 to 100 |
| CCOCC/C(=N\NC(=O)CNC(=O)c1ccc(OC)c(OC)c1)c1csc2ccccc12 [Compound 400-1] | > 6.00 | > 100 |
| COc1ccc(C(=O)NCC(=O)c2nc(-c3csc4c(F)cccc34)c(C)n2C)cc1OC [Compound 1358] | > 6.00 | 10 to 100 |
| COc1cc(C(=O)CNC(=O)c2ccc(OCCO)c(OC)c2)nc(-c2csc3c(F)cccc23)c1 [Compound 1213] | > 6.00 | > 100 |
| COc1ccc(C(=O)NCC(=O)N/N=C(/c2ccccc2)c2ccc(F)cc2)cc1OC [Compound 430] | 4.30 to 6.00 | > 100 |
| COCC/C(=N/NC(=O)CNC(=O)c1ccc(OC2COC2)c(OC)c1)c1csc2c(F)cccc12 [Compound 514B] | > 6.00 | > 100 |
| COc1ccc(C(=O)NCC(=O)c2ccc(OC)c(-c3ccc(N4CCOCC4)cc3)n2)cc1OC [Compound 1506] | 4.30 to 6.00 | 10 to 100 |
| COc1cc(C(=O)N[C@@H](C)C(=O)c2ccc(OC)c(-c3ccc(F)c(C(F)(F)F)c3)n2)ccc1OCCO [Compound 1812] | > 6.00 | 10 to 100 |

| Structure (SMILES) | pEC50 [1] | CC50 at 5 days [2] [µM] |
| --- | --- | --- |
| COc1ccc(C(=O)NCC(=O)c2cccc(-c3csc4c(F)cccc34)n2)cc1OC [Compound 1202] | 4.30 to 6.00 | > 100 |
| C/C(=N\NC(=O)CNC(=O)c1ccc(N2CCCC2)cc1)c1csc2ccccc12 [Compound 468] | 4.30 to 6.00 | > 100 |
| COc1ccc(C(=O)NCC(=O)c2ccc(OC)c(-c3c(C)ccnc3Cl)n2)cc1OC [Compound 1511] | 4.30 to 6.00 | 10 to 100 |
| CCOc1ccc(C(=O)NCC(=O)N/N=C(\C)c2csc3ccccc23)cc1OC [Compound 502] | > 6.00 | > 100 |
| COCC/C(=N\NC(=O)CNC(=O)c1ccc(OC)c(OC)c1)c1csc2ccccc12 [Compound 493] | > 6.00 | > 100 |
| CCOc1ccc(C(=O)NCC(=O)N/N=C(\CCc2ccccc2)c2csc3ccccc23)cc1OC [Compound 459] | > 6.00 | > 100 |
| CCCn1nc(C(=O)CNC(=O)c2ccc(OC)c(OC)c2)nc1-c1csc2c(F)cccc12 [Compound 1205] | 4.30 to 6.00 | 10 to 100 |
| C/C(=N\NC(=O)CNC(=O)c1ccc2c(c1)OCCO2)c1csc2ccccc12 [Compound 471] | 4.30 to 6.00 | > 100 |
| COc1ccc(C(=O)NCC(=O)c2cn(C)cc(-c3csc4c(F)cccc34)c2=O)cc1OC [Compound 1338] | 4.30 to 6.00 | 10 to 100 |
| COc1cc(C(=O)NCC(=O)c2cc(C(C)C)cc(-c3csc4c(F)cccc34)n2)ccc1OCCO [Compound 1227] | > 6.00 | 10 to 100 |
| COc1ccc(C(=O)NCC(=O)NN=C(c2ccccc2)c2ccccc2)cc1OC [Compound 440] | 4.30 to 6.00 | > 100 |
| COc1cc(C(=O)NCC(=O)c2ccc(OC)c(-c3ccc(OC(F)(F)F)cc3)n2)ccc1OCCO [Compound 1602] | > 6.00 | > 100 |
| COc1ccc(C(=O)NCC(=O)c2c[nH]cc(-c3csc4c(F)cccc34)c2=O)cc1OC [Compound 1337] | 4.30 to 6.00 | > 100 |
| COc1ccc(C(=O)NCC(=O)N(C)/N=C/c2c(C#N)sc3c(F)cccc23)cc1OCCO [Compound 2303] | 4.30 to 6.00 | > 100 |
| COc1ccc(C(=O)NCC(=O)c2ccc(OC)c(-c3csc(C(=O)O)c3)n2)cc1OC [Compound 1537] | 4.30 to 6.00 | > 100 |
| CCc1cc(C(=O)CNC(=O)c2ccc(OCCO)c(OC)c2)nc(-c2ccc(F)cc2)c1 [Compound 2109] | > 6.00 | 10 to 100 |
| COc1cc(C(=O)NCC(=O)c2ccc(OC)c(-c3c(C)[nH]c4c(F)cccc34)n2)ccc1OCCO [Compound 4002] | > 6.00 | 10 to 100 |
| COc1cc(C(=O)NCC(=O)c2ccc(OC)c(-c3ccc(F)c(C#N)c3)n2)ccc1OCCO [Compound 1615] | 4.30 to 6.00 | > 100 |
| COc1cc(C(=O)N[C@H](CO)C(=O)c2ccc(OC)c(-c3ccc(F)c(Cl)c3)n2)ccc1OCCO [Compound 1831] | > 6.00 | 10 to 100 |
| CCCC/C(=N\NC(=O)CNC(=O)c1ccc(OC)c(OC)c1)c1csc2c(F)cccc12 [Compound 400-7] | > 6.00 | 10 to 100 |
| COc1cc(C(=O)NCC(=O)N(C)C(=O)N(C)c2csc3c(F)cccc23)ccc1OCCO [Compound 2803] | 4.30 to 6.00 | > 100 |
| COc1ccc(C(=O)NCC(=O)c2ccc3c(n2)-c2c(sc4c(F)cccc24)CO3)cc1OC [Compound 2701] | 4.30 to 6.00 | 10 to 100 |
